Reference: article PMC2652713, “Molecular Blocking of CD23 Supports Its Role in the Pathogenesis of Arthritis” (PLoS ONE, 2009)

Columns and labels:
[1] = system: human CD23+ monocyte-derived macrophages; experiment: Nitrite (NO) generation by CD23-activated human macrophages, Griess reaction; type: cell-based; conditions: for iNOS-mediated NO generation: pre-incubation prior to CD23-mediated activation, mean±s.d. of 7 donors (Figure 2C)
Experimental: Figure 2 Inhibition of CD23-mediated activation of iNOS pathway in human macrophages by p30A. Human CD23^+ monocyte-derived macrophages were incubated with cross-linking CD23-McAb (20 µg/ml) alone or following 1 h pre-incubation with 10 µg/ml of various peptides. […] Expression of iNOS mRNA was compared to HPRT mRNA levels. (B) Inhibition of NO generation from human activated macrophages by synthetic peptides. Cell supernatants were collected 72 h following cell cultures and levels of nitrites were determined. […] Results are expressed as mean of 3 distinct donor cell preparations (SEM<20%). (C) Inducible NOS-mediated NO generation in human macrophages is decreased following pre-incubation with p30A or L-NIL prior to CD23-mediated activation. Results are expressed as mean±s.d. of 7 distinct donor cell preparations.
(§1) Monocytes or macrophages were activated through CD23 pathway: while monocytes/macrophages from RA patients express CD23, monocytes from healthy donors must be pre-activated to express surface CD23 as described. This pre-activation was obtained by incubation of healthy monocytes with recombinant human IL-4 (20 ng/ml) during 48 h at 37°C; After washing, all cell populations were tested by flow cytometry for their surface CD23 expression (>80% CD23^+) and then incubated in the presence of cross-linking CD23-MAb (clones 135 or DM2, IgG1k, 20 µg/ml) during 48–72 h, or IgE and anti-IgE as described, [17]. When indicated, peptides were added to the cells 2 h prior to their activation. Cells supernatants were then analyzed for their nitric oxide content (see below) and for the presence of cytokines: levels of TNF-α and IL-6 were determined in duplicates for each sample by a specific ELISA (R&D, Paris, France) while levels of IL-1β, IL-8 and IL-10 was determined using FlowCytomix Human Th1/Th2 Kit as recommended (Bender Medsystems, Vienna, Austria).
Culture supernatants (72 h) were assayed for the stable end-product of NO, NO2 ^− using the Griess reaction modified as detailed elsewhere. Inhibitory analog of L-arginine, L-NIL (N(6)-(1-iminoethyl)-L-lysine/2HCl, Coger SA, Paris, France) was used to inhibit iNOS-mediated NO generation. This method gave a sensitivity limit of 0.2 µM if low NO2 ^− medium (DMEM) was used. Total RNA was isolated as above from peritoneal macrophages. Reverse transcription-PCR was performed with an automatic thermal cycler (iCycler, Biorad) using the following specific primers: iNOS mRNA sense (5′-[…]-3′, exon 8) and iNOS mRNA antisense (5′-[…]-3′, exon 11). Hypoxanthine phosphoribosyltransferase (HPRT) mRNA sense (5′-[…]-3′) and HPRT mRNA antisense (5′-[…]- 3′) primers were used as controls. The iNOS messenger is represented by a 371-bp band, whereas a 496-bp band indicates the HPRT messenger.

[2] = system: healthy human PBL-derived macrophages; experiment: Inflammatory mediator release from healthy human PBL-derived macrophages; type: cell-based; conditions: mean±s.d.
Experimental: Figure 4 Inhibition of inflammatory mediator generation from healthy human PBL-derived macrophages by p30A. Decreased levels of TNF-α (A), IL-6 (B), IL-1β, IL-8 and IL-10 (C) were detected in CD23-activated cells after incubation with p30A. […] Values are mean±s.d. of cells from 5 (IL-6, TNF-α) or 2 (IL-1β, IL-8, IL-10) different donors.
as §1

[3] = system: adjuvant-induced arthritis in rats; experiment: Adjuvant-induced arthritis (AIA) clinical score in rats; type: in vivo, rat, Female Lewis; conditions: AIA rats; pCtl 100 mg/rat
Experimental: Figure 6 Inhibition of in vitro and in vivo inflammatory responses in rats by p30A peptide. (A) Rat peritoneal macrophages were activated via CD23 antigens with/without p30A, L-NIL or pCtl. Cell supernatants were collected 48 h later and nitrite levels were quantified. Values are mean±s.d. of cells from 3 different rats. (B) Cumulative clinical score/rat obtained following 50 days post-immunization in all groups. AIA rats were treated either after or before (d0) the onset of symptoms. Treatment consisted of p30A, hydrocortisone (HC, 30 mg/rat)) or pCtl (100 mg/rat). Shown are means of cumulative score/rat±s.d. from 5 (HC) or 8 rats (other conditions). (C) Evolution of arthritis severity scores of adjuvant-induced arthritis (AIA) in rats treated with intracutaneous p30A or pCtl (100 mg/rat) or hydrocortisone (after the onset of clinical signs as illustrated by arrows (means from 8 rats, s.e.m.<20%). (D) Histopathologic analysis confirm p30A ability to decrease all components of AIA lesions: pannus formation and inflammation of the synovium (P), deformity of joint and bones (asterix), bone remodeling and destruction (arrowhead), bone neoformation (arrows) and cartilage destruction.
All animal procedures were performed in strict accordance with the guidelines issued by the European Economic Community “86/609”. Female Lewis rats (Janvier, Le Genest St Isle, France) were housed under standard laboratory conditions with free access to food and water. The temperature was kept at 22±2°C and a 12 hour light/dark schedule was maintained.
Adjuvant arthritis was induced in six week-old animals by subcutaneous injection at the base of the tail of 300 µl containing 1.8 mg of inactivated Mycobacterium butyricum (Difco Laboratories, Detroit, MI) diluted in emulsion of 8 ml Vaseline, 1 ml polysorbate 80, and 1 ml PBS (Phosphate Buffer Saline, Eurobio). Rats were boosted one week later following the same procedure. Observation was conducted for up to 50 days following immunization for clinical signs of arthritis. Rats were divided in different groups of 8 rats. Groups were treated with five injections (every 2 days) of either p30A (10, 50 or 100 mg in a PBS solution), pCtl, hydrocortisone (Sigma Aldrich) or PBS solution. Injections were initiated two days after the appearance of first arthritic symptoms (therapeutic) or on the first day of immunization (preventive). Evaluation of AIA severity was performed by two independent observers who where not aware of the study protocol. The severity of AIA in each paw was quantified daily using an ordinal clinical score measurement from 0 to 4 as follows: no signs of inflammation ( = 0); swelling alone (>2 fold paw diameter) ( = 1) or swelling/immobility ( = 2) of one paw; swelling ( = 3) or swelling/immobility ( = 4) of two paws. Weight evolution of rats was measured daily. Rats were sacrificed 50 days after AIA induction. Peritoneal macrophages were collected and incubated in culture medium alone for 48 h. Quantification of TNF-α and IL-1β in rat cell supernatants was performed using appropriate ELISA kits and according to manufacturer's recommendations (Biosource, Montrouge, France).

[4] = system: asthma; conditions: Phase I; cited from earlier work
Text: CD23 was also directly triggered by specific antibodies as therapeutic approach.

[5] = system: iNOS; conditions: cited from earlier work
Text: Upon acquisition of CD23 surface expression, human cells may be activated using its biological ligands (e.g. IgE/antigen) or cross-linking with a specific anti-CD23 McAb, [16]. […] To confirm the ability of p30A to inhibit CD23-mediated signaling in human macrophages, we pretreated cells with purified peptides prior to their activation by McAb. Synthetic p30A reduced the levels of inducible nitric oxide syntha ...

[6] = system: peritoneal macrophages of AIA rats; experiment: Ex vivo cytokine release from peritoneal macrophages of treated AIA rats, ELISA; type: in vivo, rat, Female Lewis; conditions: treatment after onset of symptoms (AIA+p30A, 10 mg/rat; HC 30 mg/rat); cells collected 50 days post-immunization; 48 h culture; 4 rats
Experimental: AIA rats were treated either after (AIA+p30A) or before (p30A+AIA) the onset of symptoms. Treatment consisted of p30A (10 mg/rat) or hydrocortisone (HC, 30 mg/rat). Rat peritoneal macrophages were collected following 50 days post-immunization, washed and re-incubated in culture medium alone. Cell supernatants were collected 48 h later and cytokine levels were quantified. Macrophages from healthy rats were also incubated in similar conditions. Values are mean±s.d. of cells from 4 different rats.
Adjuvant arthritis was induced in six week-old animals by subcutaneous injection at the base of the tail of 300 µl containing 1.8 mg of inactivated Mycobacterium butyricum (Difco Laboratories, Detroit, MI) diluted in emulsion of 8 ml Vaseline, 1 ml polysorbate 80, and 1 ml PBS (Phosphate Buffer Saline, Eurobio). Rats were boosted one week later following the same procedure. Observation was conducted for up to 50 days following immunization for clinical signs of arthritis. Rats were divided in different groups of 8 rats. Groups were treated with five injections (every 2 days) of either p30A (10, 50 or 100 mg in a PBS solution), pCtl, hydrocortisone (Sigma Aldrich) or PBS solution. Injections were initiated two days after the appearance of first arthritic symptoms (therapeutic) or on the first day of immunization (preventive). […] Rats were sacrificed 50 days after AIA induction. Peritoneal macrophages were collected and incubated in culture medium alone for 48 h. Quantification of TNF-α and IL-1β in rat cell supernatants was performed using appropriate ELISA kits and according to manufacturer's recommendations (Biosource, Montrouge, France).

## SFNYNYA [pCtl, reference compound]
[1]; CD23-McAb 20 µg/ml, 1 h pre-incubation with peptide, supernatants at 72 h, mean of 3 donors (SEM<20%)
  NO (nitrite) generation, dose-dependence: no effect
[1]
  iNOS-mediated NO generation: not observed
[2]; ELISA, 5 donors
  IL-6 level: No effect
  TNF-α level: No effect
[2]; FlowCytomix, 2 donors
  IL-1β level: No effect
  IL-8 level: No effect
  IL-10 level: No effect
[3]
  beneficial effect on arthritis: this beneficial effect was not found

## lumiliximab: Primate/human CD23-McAb, developed for the treatment of chronic lymphocytic leukemia
[4]
  clinical outcome, asthma: promising therapy in Phase I of clinical trials for asthma

## CC(=N)NCCCC[C@H](N)C(=O)O.Cl.Cl [L-NIL, N(6)-(1-iminoethyl)-L-lysine/2HCl, reference compound]
[1]
  iNOS-mediated NO generation: decreased
[5]
  iNOS inhibition: specific inhibitor of iNOS

## C[C@]12CCC(=O)C=C1CC[C@@H]1[C@@H]2[C@@H](O)C[C@@]2(C)[C@H]1CC[C@]2(O)C(=O)CO [hydrocortisone, reference compound]
[6]
  IL-1β release ex vivo, therapeutic: moderately decreased IL-1β levels
